{"source": "patent US5432064A", "about": "“Process for dephosphorylating linear polynucleotide substrate with prosphatase form aspergillus niger” (Board of Regents of the University of Nebraska, priority 1992, dated 1995)", "target": "Aspergillus niger heat-labile phosphatase (4-nitrophenylphosphatase), purified, strain NRRL-3", "assay": "A. niger phosphatase activity assay with 4-NPP as substrate (formation of p-nitrophenol at 400 nm)", "format": "biochemical", "procedure": "A. niger phosphatase activity was routinely determined by monitoring, in a spectrophotometer set at an absorbance wavelength of 400 nm, the formation of p-nitrophenol generated by the hydrolysis of 4-NPP (purchased from Calbiochem). Non-enzymatic hydrolysis controls were routinely included. The phosphatase assay contained the following in a total volume of 1.0 ml: 8 mM 4-NPP; 25 mM Tris-HCl (pH 8.0); and 5 mM MgCl2. The reaction, which was initiated by addition of the crude, mycelium-free supernatant fluid mentioned above, was carried out at 30° C. in a Varian DMS 70 spectrophotometer with a wavelength bandpass of 2 nanometers. Molar absorptivity of 4-nitrophenol at pH 8.0 was 1.62×10^4 M^-1 cm^-1.\nTo further examine one of these potential substrates at a greater level of sensitivity, the enzyme was incubated with [gamma-^32 P]ATP under identical conditions and assayed for the liberation of ^32 Pi. No liberation above background was detected and hydrolysis of ATP appeared to occur at a rate less than one/ten-millionth of that observed with 4-NPP.\nProspective inhibitors were added to the standard assay with 4-NPP as substrate and inhibition was monitored and expressed as percent inhibition of the untreated sample (TABLE 3).", "key": {"[1]": {"details": "1 mM inhibitor, incubated with the phosphatase for 15 minutes at room temperature prior to assay, 4-NPP as substrate"}, "[2]": {"details": "1 mM inhibitor, standard assay with 4-NPP as substrate"}, "[3]": {"details": "10 mM inhibitor, standard assay with 4-NPP as substrate"}}}
{"smiles": "Nc1ncnc2c1ncn2[C@@H]1O[C@H](COP(=O)(O)OP(=O)(O)OP(=O)(O)O)[C@@H](O)[C@H]1O", "note": "[ATP, adenosine triphosphate]", "values": [{"measurement": "Ki", "setting": "competitive inhibition of hydrolysis of 4-NPP, read-out: Ki for ATP", "result": 1300, "unit": "µM"}]}
{"smiles": "CCN1C(=O)C=CC1=O", "note": "[N-ethylmaleimide]", "values": [{"measurement": "Inhibition (%)", "setting": "[1]", "result": 75, "unit": "%"}]}
{"smiles": "O=P(O)(O)OP(=O)(O)O", "note": "[PPi, inorganic pyrophosphate]", "values": [{"measurement": "Inhibition (%)", "setting": "[2]", "result": 4, "unit": "%"}, {"measurement": "Inhibition (%)", "setting": "[3]", "result": 56, "unit": "%"}]}
{"smiles": "O=C(O)CI", "note": "[iodoacetate]", "values": [{"measurement": "Inhibition (%)", "setting": "[1]", "result": 96, "unit": "%"}]}
{"smiles": "O=P(O)(O)O", "note": "[orthophosphate]", "values": [{"measurement": "Inhibition (%)", "setting": "[3]", "result": 39, "unit": "%"}]}
{"smiles": "[F-].[Na+]", "note": "[sodium fluoride]", "values": [{"measurement": "Inhibition (%)", "setting": "[2]", "result": 22, "unit": "%"}, {"measurement": "Inhibition (%)", "setting": "[3]", "result": 80, "unit": "%"}]}
